# Like-named read-outs stand apart in the source and are kept apart here.
# How the values were obtained:
# Ps. cepacia 23 = assay: in vitro antibacterial activity, agar plate dilution method (MIC); format: cell-based, Pseudomonas cepacia; settings: read-out: Minimum Inhibitory Concentration (MIC)
# Method in brief: (§1)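 MIC in μg/ml, read after 16 h at 37° C. on Mueller Hinton agar carrying graded compound levels; inoculum 10^6 CFU/ml from overnight Mueller Hinton broth.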
# E. coli CSH(RE45) = assay: microbe, parasite or virus in culture; format: cell-based; settings: Escherichia coli, 16 h, read-out: Minimum Inhibitory Concentration (MIC), *E. coli CSH(RE45), lactamase-producing strain; 10^6 CFU/ml
# Method in brief: as §1
# E. coli CSH2 (RK1) = assay: microbe, parasite or virus in culture; format: cell-based; settings: Escherichia coli, 16 h, read-out: Minimum Inhibitory Concentration (MIC), *E. coli CSH2 (RK1), lactamase-producing strain; 10^6 CFU/ml
# Method in brief: as §1
# Ps. aeruginosa AKR17 = assay: in vitro antibacterial activity, agar plate dilution method (MIC); format: cell-based, Pseudomonas aeruginosa; settings: Pseudomonas aeruginosa, read-out: Minimum Inhibitory Concentration (MIC)
# Method in brief: as §1
# Ps. aeruginosa IF03445 = assay: as above; format: cell-based, Pseudomonas aeruginosa; settings: Pseudomonas aeruginosa, IF03445, 16 h, read-out: Minimum Inhibitory Concentration (MIC), Ps. aeruginosa IF03445; 10^6 CFU/ml
# Method in brief: as §1
# Ps. aeruginosa AK 109 = assay: as above; format: cell-based, Pseudomonas aeruginosa; settings: Pseudomonas aeruginosa, AK109, 16 h
# Method in brief: as §1
# A. calcoaceticus No. 4 = assay: as above; format: cell-based, Acinetobacter calcoaceticus; settings: Acinetobacter calcoaceticus, NO.4, 16 h, read-out: Minimum Inhibitory Concentration (MIC), A. calcoaceticus No. 4; 10^6 CFU/ml
# Method in brief: as §1
# K. pneumoniae No. 42 = assay: as above; format: cell-based; settings: Klebsiella pneumoniae, NO.42, 16 h, read-out: Minimum Inhibitory Concentration (MIC), *K. pneumoniae No. 42, lactamase-producing strain; 10^6 CFU/ml
# Method in brief: as §1
# E. cloacae Nek 39 = assay: as above; format: cell-based; settings: Enterobacter cloacae, NEK39, 16 h, read-out: Minimum Inhibitory Concentration (MIC), *E. cloacae Nek 39, lactamase-producing strain; 10^6 CFU/ml
# Method in brief: as §1
# S. marcescens IAM 1184 = assay: as above; format: cell-based; settings: Serratia marcescens, IAM1184, 16 h, read-out: Minimum Inhibitory Concentration (MIC)
# Method in brief: as §1
# K. oxytoca GN10650 = assay: as above; format: cell-based; settings: Klebsiella oxytoca, GN10650, 16 h, read-out: Minimum Inhibitory Concentration (MIC), *K. oxytoca GN10650, lactamase-producing strain; 10^6 CFU/ml
# Method in brief: as §1
# E. coli NIHJ JC2 = assay: as above; format: cell-based; settings: Escherichia coli, NIHJJC2, 16 h, read-out: Minimum Inhibitory Concentration (MIC), E. coli NIHJ JC2, 10^6 CFU/ml, 37° C.
# Method in brief: as §1
# S. marcescens No. 16-2 = assay: as above; format: cell-based; settings: Serratia marcescens, NO.162, 16 h, read-out: Minimum Inhibitory Concentration (MIC), *S. marcescens No. 16-2, lactamase-producing strain; 10^6 CFU/ml
# Method in brief: as §1
# S. aureus 209P NIHJ-JC1 = assay: as above; format: cell-based; settings: Staphylococcus aureus, 16 h, read-out: Minimum Inhibitory Concentration (MIC)
# Method in brief: as §1
# E. cloacae 963 = assay: as above; format: cell-based; settings: 10^6 CFU/ml
# Method in brief: as §1
# P. vulgaris HX-19 = assay: as above; format: cell-based; settings: Proteus vulgaris, HX19, 16 h, read-out: Minimum Inhibitory Concentration (MIC)
# Method in brief: as §1
# E. coli GN5482 = assay: as above; format: cell-based; settings: Escherichia coli, GN5482, 16 h
# Method in brief: as §1
# P. vulgaris No. 33 = assay: as above; format: cell-based; settings: Proteus vulgaris, NO.33, 16 h, read-out: Minimum Inhibitory Concentration (MIC), *P. vulgaris No. 33, lactamase-producing strain; 10^6 CFU/ml
# Method in brief: as §1
# M. morganii GN5407 = assay: as above; format: cell-based; settings: Morganella morganii, GN5407, 16 h, read-out: Minimum Inhibitory Concentration (MIC), *M. morganii GN5407, lactamase-producing strain; 10^6 CFU/ml
# Method in brief: as §1
# K. pneumoniae PCI-602 = assay: as above; format: cell-based; settings: Klebsiella pneumoniae, PCI602, 16 h, read-out: Minimum Inhibitory Concentration (MIC), K. pneumoniae PCI-602; 10^6 CFU/ml
# Method in brief: as §1
# [1] = read-out: Minimum Inhibitory Concentration (MIC)
# [2] = Burkholderia cepacia, 16 h, Ps. cepacia 23, 10^6 CFU/ml
# [3] = 16 h, Ps. aeruginosa AKR17, 10^6 CFU/ml
# [4] = S. marcescens IAM 1184, 10^6 CFU/ml
# [5] = Enterobacter cloacae, 16 h, E. cloacae 963, read-out: Minimum Inhibitory Concentration (MIC)
Structure (SMILES),MIC (E. coli CSH(RE45)) [µg/mL],MIC (E. coli CSH2 (RK1)) [µg/mL],MIC (Ps. aeruginosa IF03445) [µg/mL],MIC (Ps. aeruginosa AK 109; [1]) [µg/mL],MIC (A. calcoaceticus No. 4) [µg/mL],MIC (K. pneumoniae No. 42) [µg/mL],MIC (E. cloacae Nek 39) [µg/mL],MIC (K. oxytoca GN10650) [µg/mL],MIC (E. coli NIHJ JC2) [µg/mL],MIC (S. marcescens No. 16-2) [µg/mL],MIC (S. aureus 209P NIHJ-JC1) [µg/mL],MIC (P. vulgaris HX-19) [µg/mL],MIC (P. vulgaris No. 33) [µg/mL],MIC (M. morganii GN5407) [µg/mL],MIC (K. pneumoniae PCI-602) [µg/mL],MIC (Ps. cepacia 23; [2]) [µg/mL],MIC (Ps. aeruginosa AKR17; [3]) [µg/mL],MIC (S. marcescens IAM 1184; [4]) [µg/mL],MIC (E. cloacae 963; [5]) [µg/mL],MIC (E. coli GN5482; [1]) [µg/mL],also measured
"CCON=C(C(=O)N[C@@H]1C(=O)N2C(C(=O)[O-])=C(CSc3nc(-c4ccc(O)c(O)c4)cs3)CS[C@H]12)c1csc(N)n1.[Na+] [compound 48, sodium 7β-[2-(2-aminothiazol-4-yl)-2-ethoxyiminoacetamido]-3-[4-(3,4-dihydroxyphenyl)-thiazol-2-yl]thiomethyl-3-cephem-4-carboxylate]",0.05,0.025,1.56,0.39,0.39,0.05,0.78,1.56,0.39,6.25,3.12,0.0125,0.05,0.1,< 0.006,,,,,,"MIC (Ps. cepacia 23; Burkholderia cepacia, 23, 16 h): 0.1 µg/mL; MIC (Ps. aeruginosa AKR17; AKR17, 16 h): 50 µg/mL; MIC (S. marcescens IAM 1184): 0.1 µg/mL; MIC (E. cloacae 963; Enterobacter cloacae, 963, 16 h, read-out: Minimum Inhibitory Concentration (MIC), E. cloacae 963): 0.1 µg/mL; MIC (E. coli GN5482; read-out: Minimum Inhibitory Concentration (MIC), *E. coli GN5482, lactamase-producing strain, 10^6 CFU/ml): 1.56 µg/mL"
"CCON=C(C(=O)NC1C(=O)N2C(C(=O)O)=C(CSc3nc(C(=O)O)c(-c4ccc(O)c(O)c4)s3)CSC12)c1csc(N)n1 (stereo not drawn) [compound 53, disodium 7β-[2-(2-aminothiazol-4-yl)-2-ethoxyiminoacetamido]-3-[4-carboxylate-5-(3,4-dihydroxyphenyl)thiazol-2-yl]thiomethyl-3-cephem-4-carboxylate]",0.025,0.0125,3.12,3.12,0.39,0.1,0.39,3.12,0.78,6.25,12.5,0.0125,0.025,0.05,< 0.006,0.025,50,0.05,0.1,3.12,
"CCO/N=C(\C(=O)N[C@@H]1C(=O)N2C(C(=O)O)=C(CSc3ncc(-c4ccc(OC(C)=O)c(OC(C)=O)c4)o3)CS[C@H]12)c1csc(N)n1 [compound 67, disodium 3-[5-(3,4-diacetoxyphenyl)-oxazol-2-yl]thiomethyl-7β-[2-(2-aminothiazol-4)-2-ethoxyiminoacetamido]-3-cephem-4-carboxylate]",0.1,0.0125,1.56,,0.39,0.1,0.39,1.56,0.39,6.25,3.12,0.0125,0.025,0.05,< 0.006,0.05,50,0.1,0.1,3.12,"MIC (Ps. aeruginosa AK 109; read-out: Minimum Inhibitory Concentration (MIC), Ps. aeruginosa AK 109, 10^6 CFU/ml): 1.56 µg/mL"

# Source: patent publication US5061794A, “Cephalosporin derivatives, and antibacterial agents” (priority 1986, dated 1991)
